Experimental data as given in patent US10947222B2, “Indole derivatives useful as inhibitors of diacylglyceride O-acyltransferase 2” (Merck Sharp & Dohme Corp., priority 2016, dated 2021).

Target: human DGAT2 (hDGAT2) (Homo sapiens (Human), UniProt Q96PD7)
Test: DGAT2 enzymatic activity assay (triolein formation, LC/MS/MS)
Format: biochemical
Details: Sf-9 membrane prep expressing hDGAT2; 25 μM diolein, 10 μM oleoyl-CoA; triolein by LC/MS/MS
Description: Sf-9 insect cells were maintained in Grace's insect cell culture medium with 10% heated-inactivated fetal bovine serum, 1% Pluronic F-68 and 0.14 μg/ml Kanamycine sulfate in Erlenmeyer flasks at 28° C. in a shaker incubator. After infection with untagged baculovirus expressing human DGAT2 (hDGAT2) at multiplicity of infection (MOI) 0.1 for 48 hours, cells were harvested. Cell pellets were suspended in buffer containing 10 mM Tris-HCl (pH 7.5), 1 mM EDTA (pH 8.0), 250 mM sucrose and Complete Protease Inhibitor Cocktail (Roche Diagnostics Corp., Indianapolis, Ill.), and sonicated on ice. Membrane fractions were isolated by ultracentrifugation (100,000×g pellet), resuspended in the same buffer, and frozen (−80° C.) for later use. The protein concentration was determined with the BCA Protein Assay kit (Pierce Biotechnology Inc., Rockford, Ill.). Expression of protein levels was analyzed by immunoblotting with goat polyclonal DGAT2 antibody C-15 and donkey anti-goat IgG HRP (Santa Cruz Biotechnology, Inc., Santa Cruz, Calif.) followed by detection with ECL reagent (GE Healthcare, Piscataway, N.J.).
LC/MS/MS analyses were performed using Thermal Fisher's LX4-TSQ Vantage system. This system consists of an Agilent binary high-performance liquid chromatography (HPLC) pumps and a TSQ Vantage triple quadrupole MS/MS instrument. For each sample, 2 μL samples from the top organic layer of in-plate liquid-liquid extraction were injected onto a Thermo Betabasic C4 column (2.1 mm×20 mm, 5 μm particle size). The samples were then eluted using the following conditions; mobile phase: methanol/water with 0.1% ammonium format=92/8 (v/v), flow rate: 1 mL/min, temperature: 25 C. Data was acquired in positive mode using a heated electrospray ionization (HESI) interface. The operational parameters for the TSQ Vantage MS/MS instrument were a spray voltage of 3000 V, capillary temperature of 280° C., vaporizer temperature 400° C., shealth gas 60 arbitrary unit, Aux gas 40 arbitrary units, S-lens 113 and collision gas 0.16 Pascals. […] (SRM) chromatograms of triolein (Q1:902.9>Q3:602.3) and internal standard (Q1:902.9>Q3:602.3) were collected for 40 sec. The peak area was integrated by Xcalibur Quan software. The ratio between the triolein generated in the reaction and spiked in internal standard was used to generate percentage inhibition and IC50 values. Compound percentage inhibition was calculated by the following formula: Inhibition %/=1−[(compound response−low control)/(high control−low control)]×100%. Potent compounds were titrated and IC50 were calculated by 4 parameter sigmoidal curve fitting formula.
DGAT2 activity was determined by measuring the amount of enzymatic product triolein (1,2,3-Tri(cis-9-octadecenoyl)glycerol) using the membrane prep mentioned above. The assay was carried out in deep well 384 plates in a final volume of 40 μL at rt. The assay mixture contained the following: assay buffer (100 mM Tris.Cl, pH 7.0, 20 mM MgCl2, 5% ethanol), 25 μM of diolein, 10 μM of oleoyl-CoA and 10 ng/μL of DGAT2 membrane.

Sequence of human DGAT2 (hDGAT2) (Q96PD7 whole entry): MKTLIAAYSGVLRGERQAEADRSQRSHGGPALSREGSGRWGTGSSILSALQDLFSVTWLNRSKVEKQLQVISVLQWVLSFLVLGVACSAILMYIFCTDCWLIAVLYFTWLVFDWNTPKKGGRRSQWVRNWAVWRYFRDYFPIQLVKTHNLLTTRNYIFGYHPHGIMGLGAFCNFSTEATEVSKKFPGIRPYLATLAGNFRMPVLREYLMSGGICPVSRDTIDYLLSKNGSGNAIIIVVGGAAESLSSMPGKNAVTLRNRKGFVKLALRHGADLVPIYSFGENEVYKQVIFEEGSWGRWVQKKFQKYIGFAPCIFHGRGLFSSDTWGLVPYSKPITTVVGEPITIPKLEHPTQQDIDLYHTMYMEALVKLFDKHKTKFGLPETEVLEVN

Row | IC50 | SMILES
1 | 8.8 nM | CC1(NC(=O)c2ccc3c(-c4ccccc4Cl)cn(-c4ccc(F)cc4)c3c2)CCS(=O)(=O)C1 (racemic) [Example 1, 3-(2-chlorophenyl)-1-(4-fluorophenyl)-N-(3-methyl-1,1-dioxidotetrahydrothiophen-3-yl)-1H-indole-6-carboxamide]
2 | 66 nM | O=C(NC1CCS(=O)(=O)C1)c1ccc2c(-c3ccccc3Cl)cn(-c3ccc(F)cc3)c2c1 (racemic) [Example 2, 3-(2-Chlorophenyl)-N-(1,1-dioxidotetrahydrothiophen-3-yl)-1-(4-fluorophenyl)-1H-indole-6-carboxamide]
3 | 344 nM | COCC(C)NC(=O)c1ccc2c(-c3ccccc3Cl)cn(-c3ccc(F)cc3)c2c1 (racemic) [Example 3, 3-(2-chlorophenyl)-1-(4-fluorophenyl)-N-(1-methoxypropan-2-yl)-1H-indole-6-carboxamide (racemic)]
4 | 802 nM | Cc1cc(C)nc(-c2cn(-c3ccc(F)cc3)c3cc(C(=O)NC4CCS(=O)(=O)C4)ccc23)c1 (racemic) [Example 20, 3-(4,6-dimethylpyridin-2-yl)-N-(1,1-dioxidotetrahydrothiophen-3-yl)-1-(4-fluorophenyl)-1H-indole-6-carboxamide (racemic)]
5 | 252 nM | O=C(NC1CCS(=O)(=O)C1)c1ccc2c(-c3cc(Cl)ccn3)cn(-c3ccc(F)cc3)c2c1 (racemic) [Example 21, 3-(4-chloropyridin-2-yl)-N-(1,1-dioxidotetrahydrothiophen-3-yl)-1-(4-fluorophenyl)-1H-indole-6-carboxamide (racemic)]
6 | 664 nM | O=C(NC1CCS(=O)(=O)C1)c1ccc2c(-c3ccccn3)cn(-c3ccc(F)cc3)c2c1 (racemic) [Example 22, N-(1,1-dioxidotetrahydrothiophen-3-yl)-1-(4-fluorophenyl)-3-(pyridin-2-yl)-1H-indole-6-carboxamide (racemic)]
7 | 117 nM | Cc1ccnc(-c2cn(-c3ccc(F)cc3)c3cc(C(=O)NC4CCS(=O)(=O)C4)ccc23)c1 (racemic) [Example 23, N-(1,1-dioxidotetrahydrothiophen-3-yl)-1-(4-fluorophenyl)-3-(4-methylpyridin-2-yl)-1H-indole-6-carboxamide (racemic)]
8 | 571 nM | Cc1ccnc(-c2cn(-c3ccc(F)cc3)c3cc(C(=O)NC4(C)CCS(=O)(=O)C4)ccc23)c1 (racemic) [Example 24, 1-(4-fluorophenyl)-N-(3-methyl-1,1-dioxidotetrahydrothiophen-3-yl)-3-(4-methylpyridin-2-yl)-1H-indole-6-carboxamide (racemic)]
9 | 0.77 nM | CC1(NC(=O)c2ccc3c(-c4cncc(OC(F)F)c4)cn(-c4ccc(F)cc4)c3c2)CCS(=O)(=O)C1 (racemic) [Example 25, 3-(5-(difluoromethoxy)pyridin-3-yl)-1-(4-fluorophenyl)-N-(3-methyl-1,1-dioxidotetrahydrothiophen-3-yl)-1H-indole-6-carboxamide (racemic)]
10 | 17 nM | Cc1c(-c2cccc(OC(F)F)c2)c2ccc(C(=O)NC3(C)CCS(=O)(=O)C3)cc2n1-c1ccc(F)cc1 (racemic) [Example 28, 3-(3-(difluoromethoxy)phenyl)-1-(4-fluorophenyl)-2-methyl-N-(3-methyl-1,1-dioxidotetrahydrothiophen-3-yl)-1H-indole-6-carboxamide (racemic)]
11 | 223 nM | COc1ccccc1-c1cn(-c2ccc(F)cc2)c2cc(C(=O)NC3CCS(=O)(=O)C3)ccc12 (racemic) [Example 29, N-(1,1-dioxidotetrahydrothiophen-3-yl)-1-(4-fluorophenyl)-3-(2-methoxyphenyl)-1H-indole-6-carboxamide (racemic)]
12 | 18 nM | O=C(NC1CCS(=O)(=O)C1)c1ccc2c(-c3cccc(C(F)(F)F)c3)cn(-c3ccc(F)cc3)c2c1 (racemic) [Example 30, N-(1,1-dioxidotetrahydrothiophen-3-yl)-1-(4-fluorophenyl)-3-[3-(trifluoromethyl)phenyl]-1H-indole-6-carboxamide (racemic)]
13 | 28 nM | O=C(NC1CCS(=O)(=O)C1)c1ccc2c(-c3cccc(Cl)c3)cn(-c3ccc(F)cc3)c2c1 (racemic) [Example 31, 3-(3-chlorophenyl)-N-(1,1-dioxidotetrahydrothiophen-3-yl)-1-(4-fluorophenyl)-1H-indole-6-carboxamide (racemic)]
14 | 3.2 nM | COC(=O)c1cccc(-c2cn(-c3ccc(F)cc3)c3cc(C(=O)NC4CCS(=O)(=O)C4)ccc23)c1 (racemic) [Example 32, methyl 3-{6-[(1,1-dioxidotetrahydrothiophen-3-yl)carbamoyl]-1-(4-fluorophenyl)-1H-indol-3-yl}benzoate (racemic)]
15 | 4 nM | COc1cccc(-c2cn(-c3ccc(F)cc3)c3cc(C(=O)NC4CCS(=O)(=O)C4)ccc23)c1 (racemic) [Example 33, N-(1,1-dioxidotetrahydrothiophen-3-yl)-1-(4-fluorophenyl)-3-(3-methoxyphenyl)-1H-indole-6-carboxamide (racemic)]
16 | 13 nM | Cc1cccc(-c2cn(-c3ccc(F)cc3)c3cc(C(=O)NC4CCS(=O)(=O)C4)ccc23)c1 (racemic) [Example 34, N-(1,1-dioxidotetrahydrothiophen-3-yl)-1-(4-fluorophenyl)-3-(3-methylphenyl)-1H-indole-6-carboxamide (racemic)]
17 | 101 nM | O=C(NC1CCS(=O)(=O)C1)c1ccc2c(-c3cccc(F)c3)cn(-c3ccc(F)cc3)c2c1 (racemic) [Example 35, N-(1,1-dioxidotetrahydrothiophen-3-yl)-3-(3-fluorophenyl)-1-(4-fluorophenyl)-1H-indole-6-carboxamide (racemic)]
18 | 61 nM | O=C(NC1CCS(=O)(=O)C1)c1ccc2c(-c3cccc(-c4ccccc4)c3)cn(-c3ccc(F)cc3)c2c1 (racemic) [Example 36, 3-biphenyl-3-yl-N-(1,1-dioxidotetrahydrothiophen-3-yl)-1-(4-fluorophenyl)-1H-indole-6-carboxamide (racemic)]
19 | 163 nM | CC(=O)Nc1cccc(-c2cn(-c3ccc(F)cc3)c3cc(C(=O)NC4CCS(=O)(=O)C4)ccc23)c1 (racemic) [Example 37, 3-[3-(acetylamino)phenyl]-N-(1,1-dioxidotetrahydrothiophen-3-yl)-1-(4-fluorophenyl)-1H-indole-6-carboxamide (racemic)]
20 | 15 nM | O=C(NC1CCS(=O)(=O)C1)c1ccc2c(-c3cccc(-n4cccn4)c3)cn(-c3ccc(F)cc3)c2c1 (racemic) [Example 38, N-(1,1-dioxidotetrahydrothiophen-3-yl)-1-(4-fluorophenyl)-3-[3-(1H-pyrazol-1-yl)phenyl]-1H-indole-6-carboxamide (racemic)]
21 | 1.1 nM | O=C(NC1CCS(=O)(=O)C1)c1ccc2c(-c3cccc(OC(F)F)c3)cn(-c3ccc(F)cc3)c2c1 (racemic) [Example 39, 3-[3-(difluoromethoxy)phenyl]-N-(1,1-dioxidotetrahydrothiophen-3-yl)-1-(4-fluorophenyl)-1H-indole-6-carboxamide (racemic)]
22 | 26 nM | O=C(NC1CCS(=O)(=O)C1)c1ccc2c(-c3ccccc3F)cn(-c3ccc(F)cc3)c2c1 (racemic) [Example 40, N-(1,1-dioxidotetrahydrothiophen-3-yl)-3-(2-fluorophenyl)-1-(4-fluorophenyl)-1H-indole-6-carboxamide (racemic)]
23 | 88 nM | O=C(NC1CCS(=O)(=O)C1)c1ccc2c(-c3cc(Cl)cc(Cl)c3)cn(-c3ccc(F)cc3)c2c1 (racemic) [Example 41, 3-(3,5-dichlorophenyl)-N-(1,1-dioxidotetrahydrothiophen-3-yl)-1-(4-fluorophenyl)-1H-indole-6-carboxamide (racemic)]
24 | 108 nM | O=C(NC1CCS(=O)(=O)C1)c1ccc2c(-c3ccccc3OC(F)F)cn(-c3ccc(F)cc3)c2c1 (racemic) [Example 42, 3-[2-(difluoromethoxy)phenyl]-N-(1,1-dioxidotetrahydrothiophen-3-yl)-1-(4-fluoropheny)-1H-indole-6-carboxamide (racemic)]
